Test results from US12545658B2, “Pyridine derivatives as calcium-activated chloride channel modulators” (TMEM16A LIMITED, priority 2019, dated 2026).

Biological target: T1, human TMEM16A (TMEM16Aabc variant) (Homo sapiens, UniProt Q5XXA6)
T1 construct: human TMEM16A (TMEM16Aabc variant)
T1 sequence (Q5XXA6 1-986): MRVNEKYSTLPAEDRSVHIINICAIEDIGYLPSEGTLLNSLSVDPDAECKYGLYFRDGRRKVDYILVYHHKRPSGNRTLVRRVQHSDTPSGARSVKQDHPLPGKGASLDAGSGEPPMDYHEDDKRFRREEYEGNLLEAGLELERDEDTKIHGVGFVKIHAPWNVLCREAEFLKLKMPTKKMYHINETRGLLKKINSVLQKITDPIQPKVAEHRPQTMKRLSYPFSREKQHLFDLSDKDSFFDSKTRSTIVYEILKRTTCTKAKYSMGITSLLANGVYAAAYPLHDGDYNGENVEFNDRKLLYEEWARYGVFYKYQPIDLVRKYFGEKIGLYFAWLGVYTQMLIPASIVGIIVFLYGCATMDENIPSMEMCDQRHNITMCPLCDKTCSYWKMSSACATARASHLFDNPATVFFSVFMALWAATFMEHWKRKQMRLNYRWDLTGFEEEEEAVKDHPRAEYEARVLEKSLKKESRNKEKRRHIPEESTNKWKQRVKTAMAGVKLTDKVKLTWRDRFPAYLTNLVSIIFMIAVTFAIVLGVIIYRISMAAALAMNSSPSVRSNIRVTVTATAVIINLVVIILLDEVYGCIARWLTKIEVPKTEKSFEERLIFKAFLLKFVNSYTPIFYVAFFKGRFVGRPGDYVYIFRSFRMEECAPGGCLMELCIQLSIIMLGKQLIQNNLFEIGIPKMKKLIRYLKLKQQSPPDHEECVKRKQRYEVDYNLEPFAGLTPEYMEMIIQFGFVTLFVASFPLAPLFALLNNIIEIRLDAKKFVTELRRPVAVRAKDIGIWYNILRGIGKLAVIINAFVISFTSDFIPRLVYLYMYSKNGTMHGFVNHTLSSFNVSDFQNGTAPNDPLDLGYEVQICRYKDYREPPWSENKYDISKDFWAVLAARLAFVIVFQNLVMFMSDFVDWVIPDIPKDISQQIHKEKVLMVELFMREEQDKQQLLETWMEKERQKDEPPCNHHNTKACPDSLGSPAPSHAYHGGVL
Assay: Automated whole-cell patch clamp (QPatch) TMEM16A potentiator assay in FRT cells stably expressing human TMEM16A
Assay type: cell-based
Conditions: for QPatch TMEM16A % Potentiation @ 370 nM: 370 nM test compound; for QPatch TMEM16A % Potentiation @ 370 nM / QPatch TMEM16A % Potentation @ 3.3 μM: percentage increase of baseline TMEM16A current; for QPatch TMEM16A % Potentation @ 3.3 μM: 3.3 μM test compound; for EC50: FRT-TMEM16A cells, whole-cell patch clamp, peak current at +70 mV, intracellular calcium at EC20
Method: Fisher rat thyroid (FRT) cells stably expressing human TMEM16A (TMEM16Aabc variant; Dr Luis Galietta, Insituto Giannina, Italy) were cultured in T-75 flasks in Hams F-12 media with Coon's modification (Sigma) supplemented with 10% (v/v) foetal bovine serum, penicillin-streptomycin (10,000 U/mL/10000 μg/mL), G-418 (750 μg/mL), L-glutamine (2 mM) and sodium bicarbonate solution (7.5% v/v). At ˜90% confluence cells were harvested for experiments by detachment with a 2:1 (v/v) mixture of Detachin (BMS Biotechnology) and 0.25% (w/v) trypsin-EDTA.
FRT-TMEM16A cells were whole-cell patch clamped using an automated planar patch clamp system (Qpatch, Sophion). Briefly, once high resistance (GOhm) seals were established between the cells and the planar recording array the patch was ruptured using suction pulses to establish the whole-cell recording configuration of the patch clamp technique. The assay employed the following solutions (all reagents Sigma): Intracellular solution (mM): N-methyl-D-glucamine 130, CaCl2 18.2, MgCl2 1, HEPES 10, EGTA 10, BAPTA 20, Mg-ATP 2, pH 7.25, 325 mOsm with sucrose.
Extracellular solution (mM): N-methyl-D-glucamine 130, CaCl2 2, MgCl2 1, HEPES 10, pH 7.3, 320 mOsm with sucrose.
The intracellular solution buffers intracellular calcium at levels required to give ˜20% activation of the maximal TMEM16A mediated current (EC20 for calcium ions). Cells were voltage clamped at a holding potential of −70 mV and a combined voltage step (to +70 mV)/ramp (−90 my to +90 mV) was applied at 0.05 Hz. After a period of current stabilisation test compounds, solubilised in 100% (v/v) DMSO and subsequently diluted into extracellular solution, were applied to generate a cumulative concentration response curve. Each concentration of test compound was incubated for 5 minutes before addition of the next concentration. After the final concentration was tested a supramaximal concentration of either a known active positive modulator or the TMEM16A inhibitor, CaCCinhA01 (Del La Fuente et al, 2008) was added to define the upper and lower limits of the assay.
Compound activity was quantified by measuring the increase in current upon compound addition and expressing this as a percentage increase of baseline TMEM16A current level.
In FIG. 1, IBL equals baseline current, I[#1] equals the peak current during test compound concentration 1 incubation period and so on.
Peak TMEM16A current at +70 mV was plotted as a function of time over the assay period. Baseline current (IBL) was measured after a period of stabilisation. The increase in current for each compound addition was determined by taking the peak current during the incubation period and subtracting the current from the previous recording period and then expressing this as a percentage of the baseline current (% potentiation). For test compound concentration 1 in FIG. 1 this is: (I[#1]−IBL/IBL)×100 For each additional concentration tested the increase in current was determined by subtracting the current from the previous incubation period and normalising the baseline value—for test concentration 2 in FIG. 1 this is: (I[#2]−I[#1])/IBL)×100 The values for each test concentration were plotted as a cumulative function of concentration eg. for test concentration two this would be the sum of the peak changes measured during concentration one plus concentration two.

SMILES | QPatch TMEM16A % Potentiation @ 370 nM [%] | QPatch TMEM16A % Potentation @ 3.3 μM [%] | EC50 [µM] | EC50 compared with Compound B (indole compounds versus comparator Compound B) | maximum potentiation of TMEM16A compared with Compound B (versus comparator Compound B)
CC(C)(C)NC(=O)c1cc(NC(=O)Cc2cc3[nH]ncc3cc2F)ccn1 [Example 6, N-tert-Butyl-4-[[2-(5-fluoro-1H-indazol-6-yl)acetyl]amino]pyridine-2-carboxamide] | 91 | 164 | 0.23 | – | –
CC(C)(C)NC(=O)c1cc(NC(=O)Cc2cc(F)c3cn[nH]c3c2)ccn1 [Example 7, N-tert-Butyl-4-[[2-(4-fluoro-1H-indazol-6-yl)acetyl]amino]pyridine-2-carboxamide] | 88 | 95 | 0.07 | – | –
CC(C)(C)NC(=O)c1cc(NC(=O)Cc2ccc3c(C(F)(F)F)n[nH]c3c2)ccn1 [Example 8, N-tert-Butyl-4-[[2-[3-(trifluoromethyl)-1H-indazol-6-yl]acetyl]amino]pyridine-2-carboxamide] | 65 | 98 | 0.21 | – | –
CC(C)c1n[nH]c2cc(CC(=O)Nc3ccnc(C(=O)NC(C)(C)C)c3)ccc12 [Example 9, N-tert-Butyl-4-[[2-(3-isopropyl-1H-indazol-6-yl)acetyl]amino]pyridine-2-carboxamide] | 113 | 200 | 0.28 | – | –
CC(O)(c1n[nH]c2cc(CC(=O)Nc3ccnc(C(=O)NC4(C(F)(F)F)CC4)c3)ccc12)C(F)(F)F (centres unmarked) [Example 12, 4-[[2-[3-(2,2,2-Trifluoro-1-hydroxy-1-methyl-ethyl)-1H-indazol-6-yl]acetyl]amino]-N-[1-(trifluoromethyl)cyclopropyl]pyridine-2-carboxamide] | 204 | 338 | 0.24 | – | –
CC(C)(NC(=O)c1cc(NC(=O)Cc2ccc3cc[nH]c3c2)ccn1)C(F)(F)F [Example 13, 4-[[2-(1H-Indol-6-yl)acetyl]amino]-N-(2,2,2-trifluoro-1,1-dimethyl-ethyl) pyridine-2-carboxamide] | 47 | 93 | 0.41 | – | –

Next, values leading:

QPatch TMEM16A % Potentiation @ 370 nM [%] | QPatch TMEM16A % Potentation @ 3.3 μM [%] | EC50 [µM] | EC50 compared with Compound B (indole compounds versus comparator Compound B) | maximum potentiation of TMEM16A compared with Compound B (versus comparator Compound B) | SMILES
107 | 153 | 0.14 | – | – | O=C(Cc1cc2[nH]ncc2cc1F)Nc1ccnc(C(=O)NC2(C(F)(F)F)CC2)c1 [Example 6.1, 4-[[2-(5-Fluoro-1H-indazol-6-yl)acetyl]amino]-N-[1-(trifluoromethyl)cyclopropyl]pyridine-2-carboxamide]
46 | 70 | 0.31 | – | – | O=C(Cc1cc2[nH]ncc2cc1F)Nc1ccnc(C(=O)NC2CCCC2(F)F)c1 (centres unmarked) [Example 6.2, N-(2,2-Difluorocyclopentyl)-4-[[2-(5-fluoro-1H-indazol-6-yl)acetyl]amino]pyridine-2-carboxamide]
172 | 220 | 0.11 | – | – | O=C(Cc1cc(Cl)c2cn[nH]c2c1)Nc1ccnc(C(=O)NC2(C(F)(F)F)CC2)c1 [Example 6.3, 4-[[2-(4-Chloro-1H-indazol-6-yl)acetyl]amino]-N-[1-(trifluoromethyl)cyclopropyl]pyridine-2-carboxamide]
55 | 78 | 0.02 | – | – | C#CC1(NC(=O)c2cc(NC(=O)Cc3cc(Cl)c4cn[nH]c4c3)ccn2)CCCC1 [Example 6.4, 4-[[2-(4-Chloro-1H-indazol-6-yl)acetyl]amino]-N-(1-ethynylcyclopentyl) pyridine-2-carboxamide]
47 | 82 | 0.27 | – | – | CC(C)(C)NC(=O)c1cc(NC(=O)Cc2cc3[nH]ncc3cc2Cl)ccn1 [Example 7.1, N-tert-Butyl-4-[[2-(5-chloro-1H-indazol-6-yl)acetyl]amino]pyridine-2-carboxamide]
102 | 142 | 0.14 | – | – | CC(C)(C)NC(=O)c1cc(NC(=O)Cc2cc(Cl)c3cn[nH]c3c2)ccn1 [Example 7.2, N-tert-Butyl-4-[[2-(4-chloro-1H-indazol-6-yl)acetyl]amino]pyridine-2-carboxamide]
97 | 267 | 0.6 | – | – | O=C(Cc1ccc2c(C(F)(F)F)n[nH]c2c1)Nc1ccnc(C(=O)NC2(C(F)(F)F)CC2)c1 [Example 8.1, N-[1-(Trifluoromethyl)cyclopropyl]-4-[[2-[3-(trifluoromethyl)-1H-indazol-6-yl]acetyl]amino]pyridine-2-carboxamide]
117 | 180 | 0.22 | – | – | O=C(Cc1ccc2cn[nH]c2c1)Nc1ccnc(C(=O)NC2(C(F)(F)F)COC2)c1 [Example 11.3, 4-[[2-(1H-Indazol-6-yl)acetyl]amino]-N-[3-(trifluoromethyl)oxetan-3-yl]pyridine-2-carboxamide]
85 | 132 | 0.21 | – | – | O=C(Cc1ccc2cn[nH]c2c1)Nc1ccnc(C(=O)NC2(C(F)F)CC2)c1 [Example 11.4, N-[1-(Difluoromethyl)cyclopropyl]-4-[[2-(1H-indazol-6-yl)acetyl]amino] pyridine-2-carboxamide]
41 | 61 | 0.14 | – | – | O=C(Cc1ccc2cn[nH]c2c1)Nc1ccnc(C(=O)NC23CC(F)(C2)C3)c1 [Example 11.5, N-(3-Fluoro-1-bicyclo[1.1.1]pentanyl)-4-[[2-(1H-indazol-6-yl)acetyl]amino]pyridine-2-carboxamide]
98 | 134 | 0.13 | lower EC50 values than Compound B | improved maximum potentiation of TMEM16A | N#CC1(NC(=O)c2cc(NC(=O)Cc3ccc4cc[nH]c4c3)ccn2)CCOCC1 [Example 13.2, N-(4-Cyanotetrahydropyran-4-yl)-4-[[2-(1H-indol-6-yl)acetyl]amino] pyridine-2-carboxamide]
